Assay [1] deals with HeLa (cervical adenocarcinoma). Briefly: MTS cell viability assay, HeLa. Format: cell-based. The conditions noted are these: Homo sapiens, HeLa, MTS assay; read-out: HeLa IC50. A general note: Tetrazolium dyes change colour on reduction, which living cells bring about.
Assay [2] deals with Prostate cell lines. Briefly: NCI DTP human tumor cell line screen, prostate panel. Format: cell-based. The conditions noted are these: Prostate (2 cell lines). From the text: The United States National Cancer Institute (NCI) provides a developmental therapeutics program (DTP) (http://dtp.nci.nih.gov/branches/btb/ivelsp.html) to screen submitted substances in support of cancer drug discovery. The In Vitro Cell Line Screening Project (IVCLSP) is a dedicated service providing direct support to the DTP anticancer drug discovery program and is designed to screen up to 3,000 compounds per year for potential anticancer activity. The operation of this screen utilizes 60 different human tumor cell lines, representing leukemia, melanoma and cancers of the lung, colon, brain, ovary, breast, prostate, and kidney. The aim is to prioritize for farther evaluation, synthetic compounds or natural product samples showing selective growth inhibition or cell killing of particular tumor cell lines. This screen is unique in that the complexity of a 60 cell line dose response produced by a given compound results in a biological response pattern which can be utilized in pattern recognition algorithms (COMPARE program. See: http://dtp.nci.nih.gov/docs/compare/compare.html). Using these algorithms, it is possible to assign a putative mechanism of action to a test compound, or to determine that the response pattern is unique and not similar to that of any of the standard prototype compounds included in the NCI database. […]

pIC50: −log10 of the molar value.

Usually pIC50 stands for −log10 of the IC50, conventionally taken in molar units.

Consider `C[C@H](Cc1ccc(OCCCN2CCCCC2)c(OCCCN2CCCCC2)c1)[C@@H](C)Cc1ccc(OCCCN2CCCCC2)c(OCCCN2CCCCC2)c1` [Compound A, 1,4-bis{3,4-bis[3-(piperidin-1-yl)propoxy]phenyl}-2,3-dimethyl-(2R,3S)-butane], for which the negative logarithm of the IC50 (pIC50) in assay [1] is 5.52 to 5.70. Further, in assay [2], the “Mean Growth Percent at 10 μM” value is −95.47%.

Source of the values: US20150374709A1, “TETRA-SUBSTITUTED NDGA DERIVATIVES VIA ETHER BONDS AND CARBAMATE BONDS AND THEIR SYNTHESIS AND PHARMACEUTICAL USE” (ERIMOS PHARMACEUTICALS LLC, priority 2006, published 2015).
